Results reported in patent US9993494B2, “Compositions and methods for treating fibrotic disease” (eFFECTOR Therapeutics, Inc., priority 2014, dated 2018).

Test system: normal human lung fibroblasts
Assay: Ribosomal profiling: translational efficiency in TGFβ-treated fibroblasts
Assay type: cell-based
Experimental: Ribosomal profiling allows for measurement of changes in transcription and translation on a genome-wide basis accompanying TGFβ-dependent transformation of fibroblasts to myofibroblasts. Ribosomal profiles of the TGFβ-treated fibroblasts from Example 1 (about 6×10^6 cells/10 cm plate) were prepared and analyzed for changes in translational efficiencies with respect to potential disease-associated cellular changes accompanying this TGFβ-induced transformation.
Briefly, cells were washed with cold PBS supplemented with cycloheximide and lysed with 1× mammalian cell lysis buffer for 10 minutes on ice. Lysates were clarified by centrifugation for 10 minutes at 14,000 rpm and supernatants were collected. Cell lysates were processed to generate ribosomal protected fragments and total mRNA according to the instructions included with the ARTseq Ribosome Profiling Kit (Illumina, San Diego, Calif.). Sequencing of total RNA (RNA) and of ribosome-protected fragments of RNA (RPF) was carried out using RNA-Seq methodology according to the manufacturer's instructions (Illumina). To analyze the ribosomal profiles, RNA-Seq reads were processed with tools from the FASTX-Toolkit (fastq_quality_trimmer, fastx_clipper and fastx_trimmer). Unprocessed and processed reads were evaluated for a variety of quality measures using FastQC, and processed reads were mapped to the human genome using TopHat (see, e.g., Trapnell et al., Bioinformatics 25:1105, 2009). Gene-by-gene assessment of the number of fragments strictly and uniquely mapping to the coding region of each gene was conducted using HTSeq-count, a component of the HTSeq package. […] Genes with low counts in either RPF or RNA were excluded from differential analyses. Pathway and network analyses of differential data were conducted using Ingenuity Pathway Analysis (IPA).

CC(C)n1nc(-c2cc3cc(O)ccc3[nH]2)c2c(N)ncnc21 [PP242]
renormalizing the translational profile of RHOBTB3 (ENSG00000164292, TGFβ-treated fibroblasts): − (− = <0.9) | renormalizing the translational profile of HCN1 (ENSG00000164588, TGFβ-treated fibroblasts): − (− = <0.9) | renormalizing the translational profile of RPL36AL (ENSG00000165502, TGFβ-treated fibroblasts): − (− = <0.9) | renormalizing the translational profile of RPL27A (ENSG00000166441, TGFβ-treated fibroblasts): − (− = <0.9) | renormalizing the translational profile of RP11-382A20.3.1 (ENSG00000166503, TGFβ-treated fibroblasts): − (− = <0.9) | renormalizing the translational profile of ANKDD1A (ENSG00000166839, TGFβ-treated fibroblasts): + (+ = 0.9 to 1.5) | renormalizing the translational profile of RPL13 (ENSG00000167526, TGFβ-treated fibroblasts): − (− = <0.9) | renormalizing the translational profile of EEF2 (ENSG00000167658, TGFβ-treated fibroblasts): + (+ = 0.9 to 1.5) | renormalizing the translational profile of CA5B (ENSG00000169239, TGFβ-treated fibroblasts): + (+ = 0.9 to 1.5) | renormalizing the translational profile of MURC (ENSG00000170681, TGFβ-treated fibroblasts): − (− = <0.9) | renormalizing the translational profile of HTRA3 (ENSG00000170801, TGFβ-treated fibroblasts): − (− = <0.9) | renormalizing the translational profile of PDE7B (ENSG00000171408, TGFβ-treated fibroblasts): − (− = <0.9) | renormalizing the translational profile of LPAR3 (ENSG00000171517, TGFβ-treated fibroblasts): − (− = <0.9) | renormalizing the translational profile of CTPS (ENSG00000171793, TGFβ-treated fibroblasts): − (− = <0.9) | renormalizing the translational profile of QARS (ENSG00000172053, TGFβ-treated fibroblasts): − (− = <0.9) | renormalizing the translational profile of RPL38 (ENSG00000172809, TGFβ-treated fibroblasts): − (− = <0.9) | renormalizing the translational profile of MRPL45 (ENSG00000174100, TGFβ-treated fibroblasts): + (+ = 0.9 to 1.5) | renormalizing the translational profile of RPL4 (ENSG00000174444, TGFβ-treated fibroblasts): − (− = <0.9) | renormalizing the translational profile of RPL15 (ENSG00000174748, TGFβ-treated fibroblasts): − (− = <0.9) | renormalizing the translational profile of DES (ENSG00000175084, TGFβ-treated fibroblasts): − (− = <0.9) | renormalizing the translational profile of EIF3F (ENSG00000175390, TGFβ-treated fibroblasts): − (− = <0.9) | renormalizing the translational profile of CLCF1 (ENSG00000175505, TGFβ-treated fibroblasts): − (− = <0.9) | renormalizing the translational profile of AMIGO3 (ENSG00000176020, TGFβ-treated fibroblasts): − (− = <0.9) | renormalizing the translational profile of C14orf49 (ENSG00000176438, TGFβ-treated fibroblasts): − (− = <0.9) | renormalizing the translational profile of RPLP2 (ENSG00000177600, TGFβ-treated fibroblasts): − (− = <0.9) | renormalizing the translational profile of IMPDH2 (ENSG00000178035, TGFβ-treated fibroblasts): − (− = <0.9) | renormalizing the translational profile of DNAJC22 (ENSG00000178401, TGFβ-treated fibroblasts): + (+ = 0.9 to 1.5) | renormalizing the translational profile of RPL35A (ENSG00000182899, TGFβ-treated fibroblasts): + (+ = 0.9 to 1.5) | renormalizing the translational profile of LENG9 (ENSG00000182909, TGFβ-treated fibroblasts): − (− = <0.9) | renormalizing the translational profile of C22orf32 (ENSG00000183172, TGFβ-treated fibroblasts): − (− = <0.9) | renormalizing the translational profile of NPW (ENSG00000183971, TGFβ-treated fibroblasts): − (− = <0.9) | renormalizing the translational profile of PDE4B (ENSG00000184588, TGFβ-treated fibroblasts): − (− = <0.9) | renormalizing the translational profile of ROBO2 (ENSG00000185008, TGFβ-treated fibroblasts): − (− = <0.9) | renormalizing the translational profile of PTCH1 (ENSG00000185920, TGFβ-treated fibroblasts): − (− = <0.9) | renormalizing the translational profile of POLR1D (ENSG00000186184, TGFβ-treated fibroblasts): − (− = <0.9) | renormalizing the translational profile of DYNC2H1 (ENSG00000187240, TGFβ-treated fibroblasts): − (− = <0.9) | renormalizing the translational profile of RPL14 (ENSG00000188846, TGFβ-treated fibroblasts): − (− = <0.9) | renormalizing the translational profile of LRRK2 (ENSG00000188906, TGFβ-treated fibroblasts): − (− = <0.9) | renormalizing the translational profile of NACA (ENSG00000196531, TGFβ-treated fibroblasts): − (− = <0.9) | renormalizing the translational profile of LAMB3 (ENSG00000196878, TGFβ-treated fibroblasts): − (− = <0.9) | renormalizing the translational profile of PCBP2 (ENSG00000197111, TGFβ-treated fibroblasts): − (− = <0.9) | renormalizing the translational profile of MAP3K5 (ENSG00000197442, TGFβ-treated fibroblasts): − (− = <0.9) | renormalizing the translational profile of RPL37A (ENSG00000197756, TGFβ-treated fibroblasts): − (− = <0.9) | renormalizing the translational profile of RPL12 (ENSG00000197958, TGFβ-treated fibroblasts): − (− = <0.9) | renormalizing the translational profile of LPAR1 (ENSG00000198121, TGFβ-treated fibroblasts): − (− = <0.9) | renormalizing the translational profile of RPL23A (ENSG00000198242, TGFβ-treated fibroblasts): − (− = <0.9) | renormalizing the translational profile of PLN (ENSG00000198523, TGFβ-treated fibroblasts): − (− = <0.9) | renormalizing the translational profile of RPL10A (ENSG00000198755, TGFβ-treated fibroblasts): − (− = <0.9) | renormalizing the translational profile of CES1 (ENSG00000198848, TGFβ-treated fibroblasts): − (− = <0.9) | renormalizing the translational profile of RPL39 (ENSG00000198918, TGFβ-treated fibroblasts): − (− = <0.9) | renormalizing the translational profile of CARD16 (ENSG00000204397, TGFβ-treated fibroblasts): − (− = <0.9) | renormalizing the translational profile of GNB2L1 (ENSG00000204628, TGFβ-treated fibroblasts): + (+ = 0.9 to 1.5) | renormalizing the translational profile of RPL17 (ENSG00000215472, TGFβ-treated fibroblasts): − (− = <0.9) | renormalizing the translational profile of RPL41 (ENSG00000229117, TGFβ-treated fibroblasts): − (− = <0.9) | renormalizing the translational profile of ARPC1A (ENSG00000241685, TGFβ-treated fibroblasts): − (− = <0.9) | renormalizing the translational profile of CHCHD10 (ENSG00000250479, TGFβ-treated fibroblasts): +++ (+++ = >2.0) | renormalizing the translational profile of EEF1G (ENSG00000254772, TGFβ-treated fibroblasts): − (− = <0.9) | number of the 141 eIF2 pathway genes that moved toward normal (TGFβ and PP242, of 141 genes, FIG. 8): 104 | number of the 12 eIF2 signaling pathway genes that moved toward the untransformed, normal state (TGFβ and PP242, out of 12 genes, FIG. 7): 11 | effect in renormalizing the translational profile of the gene (gene RPS2 (ENSG00000140988), TGFβ-treated fibroblasts): − (− = <0.9) | effect in renormalizing the translational profile of the gene (gene RPS3 (ENSG00000149273), TGFβ-treated fibroblasts): − (− = <0.9) | effect in renormalizing the translational profile of the gene (gene RPS3A (ENSG00000145425), TGFβ-treated fibroblasts): − (− = <0.9) | effect in renormalizing the translational profile of the gene (gene RPS4X (ENSG00000198034), TGFβ-treated fibroblasts): − (− = <0.9) | effect in renormalizing the translational profile of the gene (gene RPS4Y1 (ENSG00000129824), TGFβ-treated fibroblasts): − (− = <0.9) | effect in renormalizing the translational profile of the gene (gene RPS5 (ENSG00000083845), TGFβ-treated fibroblasts): − (− = <0.9) | effect in renormalizing the translational profile of the gene (gene RPS6 (ENSG00000137154), TGFβ-treated fibroblasts): − (− = <0.9)
